Measurements taken from ChEMBL document CHEMBL5143619, “Antimicrobial Prenylated Isoflavones from the Leaves of the Amazonian Medicinal Plant Vatairea guianensis Aubl” (J Nat Prod, 2022).

Columns and labels:
[1] = Selectivity index, ratio of IC50 for human HaCaT cells to IC50 for human A-375 cells; format: toxicity; conditions: read-out: Ratio IC50
[2] = Selectivity index, ratio of IC50 for human HaCaT cells to IC50 for human HCT-116 cells; format: toxicity; conditions: read-out: Ratio IC50
[3] = tested on: Enterococcus faecium; assay: Antibacterial activity against Enterococcus faecium assessed as bacterial growth inhibition incubated for 5 hrs by bromocresol purple dye based assay; format: functional, organism-based
[4] = Cytotoxicity against human HaCaT cells assessed as reduction in cell viability incubated for 24 hrs by CellTiter-Blue cell viability assay; format: toxicity, cell-based
[5] = tested on: A-375; assay: Cytotoxicity against human A-375 cells assessed as reduction in cell viability incubated for 24 hrs by CellTiter-Blue cell viability assay; format: functional, cell-based; conditions: A-375, 24 h
[6] = Selectivity index, ratio of IC50 for human HaCaT cells to IC50 for antibacterial activity against methicillin-resistant Staphylococcus aureus; format: toxicity; conditions: read-out: Ratio IC50
[7] = tested on: HCT-116; assay: Cytotoxicity against human HCT-116 cells assessed as reduction in cell viability incubated for 24 hrs by CellTiter-Blue cell viability assay; format: functional, cell-based; conditions: HCT-116, 24 h
[8] = Selectivity index, ratio of IC50 for human HaCaT cells to IC50 for antibacterial activity against Enterococcus faecium; format: toxicity; conditions: read-out: Ratio IC50
[9] = tested on: Staphylococcus aureus; assay: Antibacterial activity against methicillin-resistant Staphylococcus aureus assessed as bacterial growth inhibition incubated for 5 hrs under shaking condition by resazurin dye based assay; format: functional, organism-based
[10] = tested on: MDA-MB-231; assay: Cytotoxicity against human MDA-MB-231 cells assessed as reduction in cell viability incubated for 24 hrs by CellTiter-Blue cell viability assay; format: functional, cell-based; conditions: MDA-MB-231, 24 h
[11] = Selectivity index, ratio of IC50 for human HaCaT cells to IC50 for human MDA-MB-231 cells; format: toxicity; conditions: read-out: Ratio IC50
[12] = tested on: Candida albicans; assay: Antifungal activity against Candida albicans assessed as fungal growth inhibition incubated for 5 hrs under shaking condition by resazurin dye based assay; format: functional, organism-based
[13] = tested on: Cryptococcus neoformans; assay: Antifungal activity against Cryptococcus neoformans assessed as fungal growth inhibition incubated for 5 hrs by microplate reader analysis; format: functional, organism-based
[14] = tested on: Trichophyton rubrum; assay: Antifungal activity against Trichophyton rubrum assessed as fungal growth inhibition incubated for 72 hrs by microplate reader analysis; format: functional, organism-based
[15] = Selectivity index, ratio of IC50 for human HaCaT cells to IC50 for antifungal activity against Trichophyton rubrum; format: toxicity; conditions: read-out: Ratio IC50
[16] = Selectivity index, ratio of IC50 for human HaCaT cells to IC50 for antifungal activity against Cryptococcus neoformans; format: toxicity; conditions: read-out: Ratio IC50
[17] = Selectivity index, ratio of IC50 for human HaCaT cells to IC50 for antifungal activity against Candida albicans; format: toxicity; conditions: read-out: Ratio IC50

Row | Compound | selectivity ratio [1] | selectivity ratio [2] | IC50 at 24 h [4] [µM] | IC50 [5] [µM] | selectivity ratio [6] | IC50 [7] [µM] | IC50 [9] [µM] | IC50 [10] [µM] | other results
1 | COc1cc(-c2coc3c(CCC(C)(C)O)c(O)cc(O)c3c2=O)ccc1O | 0.8 | 0.9 | 207 | 250 | 5.6 | 234 | 37 |  | IC50 [3]: 80.6 µM; selectivity ratio [8]: 2.6
2 | COc1ccc(-c2coc3c(CCC(C)(C)O)c(O)cc(O)c3c2=O)cc1O |  |  |  |  | > 5.5 |  | 49 |  | 
3 | COc1cccc2c1C(=O)c1c(O)c3c(c(O)c1C2=O)C[C@@](O)(C(=O)CO)C[C@@H]3O[C@H]1C[C@H](N)[C@H](O)[C@H](C)O1 [DOXORUBICIN] |  |  | 50 | 0.4 |  | 49.5 |  | 25.8 | 
4 | CC1(C)S[C@@H]2[C@H](NC(=O)[C@H](N)c3ccccc3)C(=O)N2[C@H]1C(=O)O [AMPICILLIN] |  |  |  |  |  |  |  |  | IC50 [3]: 0.6 µM
5 | CC(C)(O)CCc1c(O)cc(O)c2c(=O)c(-c3ccc(O)cc3)coc12 | 0.8 | 1.4 | 135 | 160 |  | 222 |  | 154 | selectivity ratio [11]: 0.9
6 | NYSTATIN |  |  |  |  |  |  |  |  | IC50 [12]: 1.3 µM
7 | COc1cc(-c2coc3c(CC=C(C)C)c(O)cc(O)c3c2=O)ccc1O | 1.4 | 1.9 | 80.7 | 58.2 |  | 110 |  | 87.5 | selectivity ratio [11]: 1.5
8 | O=C(N[C@H](CO)[C@H](O)c1ccc([N+](=O)[O-])cc1)C(Cl)Cl [CHLORAMPHENICOL] |  |  |  |  |  |  | 3.1 |  | 
9 | C[C@@H]1[C@H](O)[C@@H](C)/C=C/C=C/C=C/C=C/C=C/C=C/C=C/[C@H](O[C@@H]2O[C@H](C)[C@@H](O)[C@H](N)[C@@H]2O)C[C@@H]2O[C@](O)(C[C@@H](O)C[C@@H](O)[C@H](O)CC[C@@H](O)C[C@@H](O)CC(=O)O[C@H]1C)C[C@H](O)[C@H]2C(=O)O [AMPHOTERICIN B] |  |  |  |  |  |  |  |  | IC50 [13]: 0.2 µM
10 | Clc1ccccc1C(c1ccccc1)(c1ccccc1)n1ccnc1 [CLOTRIMAZOLE] |  |  |  |  |  |  |  |  | IC50 [14]: 0.3 µM
11 | CC(C)(O)CCc1c(O)cc(O)c2c(=O)c(-c3ccc(O)c(O)c3)coc12 |  |  | 85.9 |  | 2.9 |  | 29.6 |  | 
12 | CC(C)=CCc1c(O)cc(O)c2c(=O)c(-c3ccc(O)cc3)coc12 | 1.8 | 0.9 | 160 | 88.5 |  | 187 |  |  | 
13 | COc1ccc(-c2coc3c(CC=C(C)C)c(O)cc(O)c3c2=O)cc1O | 1.2 | 0.8 | 69.8 | 58.4 | 10.3 | 87.5 | 6.8 | 110 | IC50 [3]: 12.8 µM; selectivity ratio [15]: 5.7; IC50 [13]: 13.6 µM; selectivity ratio [16]: 5.1; selectivity ratio [17]: 2.6; selectivity ratio [11]: 0.6; selectivity ratio [8]: 5.5; IC50 ([12]; Candida albicans, 5 h): 26.9 µM; IC50 [14]: 12.2 µM
